From US5620958A, “Bradykinin antagonists” (Coretech, Inc., priority 1994, dated 1997)
Peptide text beside a SMILES is read from it.

Assays:
NK1 receptor = target: T1, NK1 receptor (Cavia porcellus, UniProt P30547); assay: guinea pig ileum assay of NK1 receptor activity against substance P; type: cell-based; settings: Table O; for Kb: read-out: NK1 : GPI pA2 (± s.e.m.) (converted)
T1 construct: a standard guinea pig ileum assay of NK1 receptor activity; from tissue; host or cells: guinea pig ileum
T1 sequence (P30547 whole entry): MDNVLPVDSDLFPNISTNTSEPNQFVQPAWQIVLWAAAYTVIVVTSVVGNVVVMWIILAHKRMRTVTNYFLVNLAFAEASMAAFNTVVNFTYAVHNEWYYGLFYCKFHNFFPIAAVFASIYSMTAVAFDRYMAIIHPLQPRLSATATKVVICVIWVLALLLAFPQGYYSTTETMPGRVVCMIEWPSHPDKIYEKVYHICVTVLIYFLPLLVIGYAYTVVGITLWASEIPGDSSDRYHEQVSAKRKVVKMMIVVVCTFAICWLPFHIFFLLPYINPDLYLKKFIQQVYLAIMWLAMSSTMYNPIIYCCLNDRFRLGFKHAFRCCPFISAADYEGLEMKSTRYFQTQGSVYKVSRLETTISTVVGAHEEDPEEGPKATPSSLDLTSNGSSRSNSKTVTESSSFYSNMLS
From the text: In order to illustrate the potential of blocking two different receptor populations with a single compound a consensus NK1 receptor antagonist (DArg-DPro-Lys-Pro-Gln-Asn-DPhe-Phe-DTrp-Leu-Nle) was synthesized. […] Once the activity of this reference ligand was established, a series of lysine containing monomers formed by the systematic substitution of a lysine residue sequentially through the reference peptide was synthesized.

BK2 receptor = target: T2, BK2 receptor (Rattus norvegicus, UniProt P25023); assay: cell-based
T2 sequence (P25023 1-396): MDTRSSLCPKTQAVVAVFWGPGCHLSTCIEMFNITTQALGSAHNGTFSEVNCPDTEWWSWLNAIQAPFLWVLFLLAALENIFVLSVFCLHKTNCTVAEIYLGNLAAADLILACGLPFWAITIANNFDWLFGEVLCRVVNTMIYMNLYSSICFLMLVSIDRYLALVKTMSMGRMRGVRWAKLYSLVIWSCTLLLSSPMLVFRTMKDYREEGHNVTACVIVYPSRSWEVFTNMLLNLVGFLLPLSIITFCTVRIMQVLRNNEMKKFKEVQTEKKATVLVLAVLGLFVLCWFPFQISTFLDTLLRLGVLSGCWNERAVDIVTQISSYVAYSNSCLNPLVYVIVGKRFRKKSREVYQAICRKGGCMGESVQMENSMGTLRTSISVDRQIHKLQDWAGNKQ

Structure (SMILES)	Kb (NK1 receptor)	Kb (BK2 receptor)	NK1 : GPI pA2 (± s.e.m.) (NK1 receptor)
CCCC[C@H](NC(=O)[C@H](CCCCNC(=O)CCCCCN1C(=O)CC(SC[C@H](NC(=O)[C@H](Cc2ccccc2)NC(=O)CNC(=O)[C@@H]2C[C@@H](O)CN2C(=O)[C@@H]2CCCN2C(=O)[C@H](CCCNC(=N)N)NC(=O)[C@H](N)CCCNC(=N)N)C(=O)N[C@H](Cc2ccccc2)C(=O)N[C@@H](CC(C)C)C(=O)N[C@@H](CCCNC(=N)N)C(=O)O)C1=O)NC(=O)[C@@H](Cc1c[nH]c2ccccc12)NC(=O)[C@H](Cc1ccccc1)NC(=O)[C@@H](Cc1ccccc1)NC(=O)[C@H](CC(N)=O)NC(=O)[C@H](CCC(N)=O)NC(=O)[C@@H]1CCCN1C(=O)[C@H](CCCCN)NC(=O)[C@H]1CCCN1C(=O)[C@H](N)CCCNC(=N)N)C(N)=O (some centres unmarked) [CP-0399] (HELM PEPTIDE1{[dR].[dP].K.P.Q.N.[dF].F.[dW].K.[Nle].[am]}|PEPTIDE2{[dR].R.P.[Hyp].G.F.C.[dF].L.R}|CHEM1{[O=C1CC([*:2])C(=O)N1CCCCCC(=O)[*:1]]}$PEPTIDE1,CHEM1,10:R3-1:R1|PEPTIDE2,CHEM1,7:R3-1:R2$$$V2.0)	12600 nM	39.8 nM	–
CCCC[C@H](NC(=O)[C@H](CC(C)C)NC(=O)[C@@H](Cc1c[nH]c2ccccc12)NC(=O)[C@H](Cc1ccccc1)NC(=O)[C@@H](Cc1ccccc1)NC(=O)[C@H](CC(N)=O)NC(=O)[C@H](CCC(N)=O)NC(=O)[C@@H]1CCCN1C(=O)[C@H](CCCCN)NC(=O)[C@H]1CCCN1C(=O)[C@@H](N)CCCCNC(=O)CCCCCN1C(=O)CC(SC[C@H](NC(=O)[C@H](Cc2ccccc2)NC(=O)CNC(=O)[C@@H]2C[C@@H](O)CN2C(=O)[C@@H]2CCCN2C(=O)[C@H](CCCNC(=N)N)NC(=O)[C@H](N)CCCNC(=N)N)C(=O)N[C@H](Cc2ccccc2)C(=O)N[C@@H](CC(C)C)C(=O)N[C@@H](CCCNC(=N)N)C(=O)O)C1=O)C(N)=O (some centres unmarked) [CP-0390] (HELM PEPTIDE1{K.[dP].K.P.Q.N.[dF].F.[dW].L.[Nle].[am]}|PEPTIDE2{[dR].R.P.[Hyp].G.F.C.[dF].L.R}|CHEM1{[O=C1CC([*:2])C(=O)N1CCCCCC(=O)[*:1]]}$PEPTIDE1,CHEM1,1:R3-1:R1|PEPTIDE2,CHEM1,7:R3-1:R2$$$V2.0)	15800 nM	63.1 nM	–
CCCC[C@H](NC(=O)[C@H](CC(C)C)NC(=O)[C@@H](Cc1c[nH]c2ccccc12)NC(=O)[C@H](Cc1ccccc1)NC(=O)[C@@H](Cc1ccccc1)NC(=O)[C@H](CC(N)=O)NC(=O)[C@H](CCCCNC(=O)CCCCCN1C(=O)CC(SC[C@H](NC(=O)[C@H](Cc2ccccc2)NC(=O)CNC(=O)[C@@H]2C[C@@H](O)CN2C(=O)[C@@H]2CCCN2C(=O)[C@H](CCCNC(=N)N)NC(=O)[C@H](N)CCCNC(=N)N)C(=O)N[C@H](Cc2ccccc2)C(=O)N[C@@H](CC(C)C)C(=O)N[C@@H](CCCNC(=N)N)C(=O)O)C1=O)NC(=O)[C@@H]1CCCN1C(=O)[C@H](CCCCN)NC(=O)[C@H]1CCCN1C(=O)[C@H](N)CCCNC(=N)N)C(N)=O (some centres unmarked) [CP-0394] (HELM PEPTIDE1{[dR].[dP].K.P.K.N.[dF].F.[dW].L.[Nle].[am]}|PEPTIDE2{[dR].R.P.[Hyp].G.F.C.[dF].L.R}|CHEM1{[O=C1CC([*:2])C(=O)N1CCCCCC(=O)[*:1]]}$PEPTIDE1,CHEM1,5:R3-1:R1|PEPTIDE2,CHEM1,7:R3-1:R2$$$V2.0)	1580 nM	12.6 nM	–
CCCC[C@H](NC(=O)[C@H](CC(C)C)NC(=O)[C@@H](Cc1c[nH]c2ccccc12)NC(=O)[C@H](Cc1ccccc1)NC(=O)[C@@H](Cc1ccccc1)NC(=O)[C@H](CC(N)=O)NC(=O)[C@H](CCC(N)=O)NC(=O)[C@@H]1CCCN1C(=O)[C@H](CCCCNC(=O)CCCCCN1C(=O)CC(SC[C@H](NC(=O)[C@H](Cc2ccccc2)NC(=O)CNC(=O)[C@@H]2C[C@@H](O)CN2C(=O)[C@@H]2CCCN2C(=O)[C@H](CCCNC(=N)N)NC(=O)[C@H](N)CCCNC(=N)N)C(=O)N[C@H](Cc2ccccc2)C(=O)N[C@@H](CC(C)C)C(=O)N[C@@H](CCCNC(=N)N)C(=O)O)C1=O)NC(=O)[C@H]1CCCN1C(=O)[C@H](N)CCCNC(=N)N)C(N)=O (some centres unmarked) [CP-0392] (HELM PEPTIDE1{[dR].[dP].K.P.Q.N.[dF].F.[dW].L.[Nle].[am]}|PEPTIDE2{[dR].R.P.[Hyp].G.F.C.[dF].L.R}|CHEM1{[O=C1CC([*:2])C(=O)N1CCCCCC(=O)[*:1]]}$PEPTIDE1,CHEM1,3:R3-1:R1|PEPTIDE2,CHEM1,7:R3-1:R2$$$V2.0)	5010 nM	100 nM	–
CCCC[C@H](NC(=O)[C@H](CC(C)C)NC(=O)[C@@H](Cc1c[nH]c2ccccc12)NC(=O)[C@H](Cc1ccccc1)NC(=O)[C@@H](Cc1ccccc1)NC(=O)[C@H](CCCCNC(=O)CCCCCN1C(=O)CC(SC[C@H](NC(=O)[C@H](Cc2ccccc2)NC(=O)CNC(=O)[C@@H]2C[C@@H](O)CN2C(=O)[C@@H]2CCCN2C(=O)[C@H](CCCNC(=N)N)NC(=O)[C@H](N)CCCNC(=N)N)C(=O)N[C@H](Cc2ccccc2)C(=O)N[C@@H](CC(C)C)C(=O)N[C@@H](CCCNC(=N)N)C(=O)O)C1=O)NC(=O)[C@H](CCC(N)=O)NC(=O)[C@@H]1CCCN1C(=O)[C@H](CCCCN)NC(=O)[C@H]1CCCN1C(=O)[C@H](N)CCCNC(=N)N)C(N)=O (some centres unmarked) [CP-0395] (HELM PEPTIDE1{[dR].[dP].K.P.Q.K.[dF].F.[dW].L.[Nle].[am]}|PEPTIDE2{[dR].R.P.[Hyp].G.F.C.[dF].L.R}|CHEM1{[O=C1CC([*:2])C(=O)N1CCCCCC(=O)[*:1]]}$PEPTIDE1,CHEM1,6:R3-1:R1|PEPTIDE2,CHEM1,7:R3-1:R2$$$V2.0)	501 nM	50.1 nM	–
CCCC[C@H](NC(=O)[C@H](CC(C)C)NC(=O)[C@H](CCCCNC(=O)CCCCCN1C(=O)CC(SC[C@H](NC(=O)[C@H](Cc2ccccc2)NC(=O)CNC(=O)[C@@H]2C[C@@H](O)CN2C(=O)[C@@H]2CCCN2C(=O)[C@H](CCCNC(=N)N)NC(=O)[C@H](N)CCCNC(=N)N)C(=O)N[C@H](Cc2ccccc2)C(=O)N[C@@H](CC(C)C)C(=O)N[C@@H](CCCNC(=N)N)C(=O)O)C1=O)NC(=O)[C@H](Cc1ccccc1)NC(=O)[C@@H](Cc1ccccc1)NC(=O)[C@H](CC(N)=O)NC(=O)[C@H](CCC(N)=O)NC(=O)[C@@H]1CCCN1C(=O)[C@H](CCCCN)NC(=O)[C@H]1CCCN1C(=O)[C@H](N)CCCNC(=N)N)C(N)=O (some centres unmarked) [CP-0398] (HELM PEPTIDE1{[dR].[dP].K.P.Q.N.[dF].F.K.L.[Nle].[am]}|PEPTIDE2{[dR].R.P.[Hyp].G.F.C.[dF].L.R}|CHEM1{[O=C1CC([*:2])C(=O)N1CCCCCC(=O)[*:1]]}$PEPTIDE1,CHEM1,9:R3-1:R1|PEPTIDE2,CHEM1,7:R3-1:R2$$$V2.0)	–	398 nM	Inactive
CCCC[C@H](NC(=O)[C@H](CC(C)C)NC(=O)[C@@H](Cc1c[nH]c2ccccc12)NC(=O)[C@H](CCCCNC(=O)CCCCCN1C(=O)CC(SC[C@H](NC(=O)[C@H](Cc2ccccc2)NC(=O)CNC(=O)[C@@H]2C[C@@H](O)CN2C(=O)[C@@H]2CCCN2C(=O)[C@H](CCCNC(=N)N)NC(=O)[C@H](N)CCCNC(=N)N)C(=O)N[C@H](Cc2ccccc2)C(=O)N[C@@H](CC(C)C)C(=O)N[C@@H](CCCNC(=N)N)C(=O)O)C1=O)NC(=O)[C@@H](Cc1ccccc1)NC(=O)[C@H](CC(N)=O)NC(=O)[C@H](CCC(N)=O)NC(=O)[C@@H]1CCCN1C(=O)[C@H](CCCCN)NC(=O)[C@H]1CCCN1C(=O)[C@H](N)CCCNC(=N)N)C(N)=O (some centres unmarked) [CP-0397] (HELM PEPTIDE1{[dR].[dP].K.P.Q.N.[dF].K.[dW].L.[Nle].[am]}|PEPTIDE2{[dR].R.P.[Hyp].G.F.C.[dF].L.R}|CHEM1{[O=C1CC([*:2])C(=O)N1CCCCCC(=O)[*:1]]}$PEPTIDE1,CHEM1,8:R3-1:R1|PEPTIDE2,CHEM1,7:R3-1:R2$$$V2.0)	–	20 nM	Inactive
